Calls of active or inactive are those of the source. No cut-off for these calls is given here.
Molecular target: T1, Retinoic acid receptor RXR-beta (Homo sapiens) (UniProt P28702)
T1 sequence (whole entry): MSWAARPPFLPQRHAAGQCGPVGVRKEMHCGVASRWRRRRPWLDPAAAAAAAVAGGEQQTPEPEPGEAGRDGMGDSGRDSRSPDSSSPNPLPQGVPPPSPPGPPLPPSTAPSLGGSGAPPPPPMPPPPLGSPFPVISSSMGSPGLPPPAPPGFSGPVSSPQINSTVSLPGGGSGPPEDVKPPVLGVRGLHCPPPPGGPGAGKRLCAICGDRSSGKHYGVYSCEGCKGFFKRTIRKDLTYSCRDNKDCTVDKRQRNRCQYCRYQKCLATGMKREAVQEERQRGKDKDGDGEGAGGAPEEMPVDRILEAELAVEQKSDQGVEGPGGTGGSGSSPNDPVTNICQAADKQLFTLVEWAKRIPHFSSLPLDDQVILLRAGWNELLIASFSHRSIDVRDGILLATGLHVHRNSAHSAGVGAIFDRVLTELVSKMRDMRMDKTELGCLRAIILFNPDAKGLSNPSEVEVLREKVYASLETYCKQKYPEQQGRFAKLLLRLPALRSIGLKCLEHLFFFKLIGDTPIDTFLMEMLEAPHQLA
Experiment: Agonist activity at human RXRbeta expressed in human HeLa cells assessed as relative luminescence units by luciferase assay relative to control
Assay type: functional, cell-based

- Activity: Active
Structure (SMILES): CC(=C/C=C/C(C)=C/C(=O)O)/C=C/C1=C[C@H](C)CC[C@H]1C(C)C
